Assay results: PubChem BioAssay AID623910 (NMMLSC, 2012)

System: mouse and human plasma, RED dialysis, LC/MS/MS, 4 h
Experiment: plasma protein binding, mouse and human, late-stage follow-up, ADME assay for GPR30 and estrogen receptor ligands, biochemical (AID 623910)

Compound: CC(=O)c1ccc2c(c1)[C@@H]1C=CC[C@@H]1[C@H](c1cc3c(cc1Br)OCO3)N2
- plasma protein binding (at 1 µM): 99.8%
- plasma protein binding (human plasma binding, at 10 µM): 99.8%
- plasma protein binding (mouse plasma binding, at 1 µM): 99.8%
- plasma protein binding (mouse plasma binding, at 10 µM): 99.5%
